According to the supplement of paper PMC10307832:

Experiments:
BAY61-3606 + Trametinib = compound: COC1=C(C=C(C=C1)C2=CC3=NC=CN3C(=N2)NC4=C(C=CC=N4)C(=O)N)OC [BAY61-3606] + CC(=O)Nc1cccc(-n2c(=O)n(C3CC3)c(=O)c3c(Nc4ccc(I)cc4F)n(C)c(=O)c(C)c32)c1 [Trametinib] (partner 0.02 µM); assay: relative viability (nuclei count vs DMSO), 5 days (fraction); higher = more cells survive
How it was run: (§1)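 Relative viability divides the nuclei count in treated wells by that in vehicle wells. Lung cancer cell lines were seeded in 1536-well plates, dosed by pin tool the next day, and fixed and stained after 5 days in one step with final 0.05% Triton X-100, 1% formaldehyde and 1 ug/ml Hoechst. Dosing was a single drug or a fixed anchor-drug dose plus five library-drug doses (not always all listed) in √10 steps, and values are medians of duplicate plates imaged at 4×.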

Doxorubicin + Dasatinib = compound: COc1cccc2c1C(=O)c1c(O)c3c(c(O)c1C2=O)C[C@@](O)(C(=O)CO)C[C@@H]3O[C@H]1C[C@H](N)[C@H](O)[C@H](C)O1 [Doxorubicin] + Cc1nc(Nc2ncc(C(=O)Nc3c(C)cccc3Cl)s2)cc(N2CCN(CCO)CC2)n1 [Dasatinib] (partner 0.075 µM); assay: as above
How it was run: as §1

Row | Cell Line | relative viability (BAY61-3606 + Trametinib; first compound 0.02 µM) | relative viability (BAY61-3606 + Trametinib; first compound 0.06325 µM) | relative viability (BAY61-3606 + Trametinib; first compound 0.2 µM) | relative viability (BAY61-3606 + Trametinib; first compound 0.6325 µM) | relative viability (BAY61-3606 + Trametinib; first compound 2 µM) | relative viability (Doxorubicin + Dasatinib; first compound 0.001 µM) | relative viability (Doxorubicin + Dasatinib; first compound 0.003162 µM) | relative viability (Doxorubicin + Dasatinib; first compound 0.01 µM) | relative viability (Doxorubicin + Dasatinib; first compound 0.03162 µM) | relative viability (Doxorubicin + Dasatinib; first compound 0.1 µM)
1 | HCC-78 | 0.763 | 0.745 | 0.738 | 0.836 | 0.859 | 0.412 | 0.465 | 0.366 | 0.349 | 0.363
2 | HOP-62 | – | 0.416 | 0.414 | 0.456 | 0.336 | 0.68 | 0.737 | 0.601 | 0.628 | 0.552
3 | NCI-H1623 | – | – | – | – | – | 0.502 | 0.564 | 0.55 | 0.548 | 0.491
4 | NCI-H3122 | 0.235 | 0.24 | 0.246 | 0.242 | 0.249 | 0.684 | 0.837 | 0.735 | 0.291 | 0.928
5 | NCI-H1666 | 0.828 | 0.973 | 0.822 | 0.792 | 0.768 | 0.812 | 0.811 | 0.461 | 0.359 | 0.318
6 | HARA | 0.6 | 0.52 | 0.781 | 0.724 | 0.54 | 0.26 | 0.344 | 0.296 | 0.261 | 0.23
7 | NCI-H1651 | 0.929 | 0.809 | 0.833 | 0.844 | 0.762 | 0.334 | 0.39 | 0.246 | 0.154 | 0.102
8 | NCI-H1395 | 1.06 | 1.07 | 0.964 | 1.02 | 0.95 | 0.415 | 0.422 | 0.389 | 0.398 | 0.376
9 | SK-LU-1 | 0.562 | 0.512 | 0.482 | 0.532 | 0.406 | 0.158 | 0.193 | 0.166 | 0.124 | 0.116
10 | LXF-289 | 0.694 | 0.673 | 0.722 | 0.752 | 0.766 | 0.224 | 0.293 | 0.241 | 0.238 | 0.281
11 | NCI-H1437 | 0.537 | 0.456 | 0.523 | 0.602 | 0.462 | 0.369 | 0.391 | 0.3 | 0.459 | 0.152
12 | HCC-827 | 0.511 | 0.585 | 0.539 | 0.583 | 0.608 | 0.3 | 0.335 | 0.29 | 0.304 | 0.365
13 | NCI-H1650 | 0.661 | 0.514 | 0.595 | 0.569 | 0.29 | 0.37 | 0.321 | 0.301 | 0.149 | 0.11
14 | HCC-15 | 0.425 | 0.375 | 0.385 | 0.382 | 0.423 | – | 0.654 | 0.493 | 0.191 | 0.0861
15 | EKVX | 0.497 | 0.308 | 0.303 | 0.361 | 0.365 | 0.581 | 0.504 | 0.601 | 0.539 | 0.501
16 | NCI-H2126 | 0.622 | 0.539 | 0.514 | 0.567 | 0.57 | 0.619 | 0.556 | 0.55 | 0.232 | 0.224
17 | LK-2 | 0.727 | 0.806 | 0.897 | 0.915 | 0.683 | 0.326 | 0.284 | 0.221 | 0.286 | 0.265
